Source: patent US20140179619A1, “POLYPEPTIDE, NUCLEOTIDE SEQUENCE THEREOF, AND METHOD FOR USING THE SAME FOR PREVENTING DNA SYNTHESIS AND INHIBITING CELL PROLIFERATION” (Wuhan Yicheng Biotech, Inc., priority 2011, published 2014)
No end group written: not given here.

Key:
[1] = test system: human granulocytic leukemia cells K562; experiment: Growth of human leukemia tumor in mice; settings: K562 subcutaneous in mice, tumor weight vs control, injection every other day 7 times, after two weeks; PTD-P15 1 mg, Glivec 10 mcg
Text: After 5×10^6human granulocytic leukemia cells K562 injected into the subcutaneous tissue of mice, the mice were randomly divided into five groups. […] After two weeks, the mice were killed, from which the tumors grown in the subcutaneous tissue of the mice were taken out and weighed.

[2] = test system: NIH/3T3; experiment: Cell cycle distribution by FCM of GFP-positive transfected cells; assay type: cell-based
Experimental: (§1) The impact of P15 on cell proliferation is tested with NIH/3T3 (fibroblast and eptithlial cells, purchased from American ATCC, Cat No. CRL-1658) and MCF-7 (breast cancer cell line, purchased from American ATCC, Cat No. HTB-22).
(§2) Plasmid used for experiment: pEGFP-P15 (to express fused protein P15-GFP); control plasmid: pEGFP-N1
(§3) After the plasmid for transfection and the lipofectamine reagent (purchased from American Invitrogen, Cat No. 11668) were mixed, the mixture stayed for 15 minutes at room temperature. Then the mixture was first introduced into cells (with a cell density of about 50%) cultured in DMEM without serum for 5 hours of cultivation at 37° C. and next into SBF with a mass concentration of 10% for 48 hours of cultivation. […] In addition, by the use of FCM, it was easy to separate and purify the positive fluorescent protein cells. The symbolic indicators to test cell proliferation such as cell cycle were used to study and testify the impact of P15 on cell proliferation, while in these experiments, only the cells that express fluorescent proteins were used as control group.
(§4) First, we used the above mentioned plasmid to transfect 3T3 and MCF7, and used FCM to sort the positive GFP cells transfected with DNA and analyzed the cycle distribution of these cells two days later.

[3] = test system: Cells 3T3; experiment: BrdU penetration in DNA (DNA synthesis) in transfected cells; assay type: cell-based
Experimental: (§5) DNA synthesis is the symbol of cell proliferation. In the next experiment, we tested the impact of P15 on DNA synthesis. Within the 15 hours after 3T3 and MCF7 transfecting pEGFP-N 1 and expressing P15-GFP plasmid for two days, the BrdU labeled […] that can penetrate in the newly synthesized DNA chain were added in cell culture fluid. The positive GFP cells in plasmid were detected and transfected with immunofluorescence technique, and the positive rate of BrdU penetration in DNA (this reflects the rate of DNA synthesis) was ascertained.

[4] = test system: Cells MCF7; experiment: as above; assay type: cell-based
Experimental: as §5

[5] = test system: MCF-7 (breast cancer cell line); experiment: Cell cycle distribution by FCM of GFP-positive transfected cells; assay type: cell-based; settings: Cells MCF7, GFP-positive cells sorted two days after transfection
Experimental: as §1, §2, §3, §4

[6] = Cells 3T3, GFP-positive cells sorted two days after transfection

asparaginic acid-arginine-arginine-asparaginic acid-leucine-tyrosine-asparaginic acid-asparaginic acid-asparaginic acid-asparaginic acid-lysine-asparaginic acid-arginine-methionine-alanine-glycine-threonine-methionine [Control polypeptide]
Inhibition ratio [1]: −2%

methionine-proline-tyrosine-serine-threonine-glutamic acid-leucine-isoleucine-phenylalanine-tyrosine-isoleucine-glutamic acid-methionine-asparaginic acid-proline [P15]
impact on cell apoptosis ([2]; expression of P15 in 3T3 and MCF7): no obvious impact on cell apoptosis

P15-GFP: fused protein consisted of P15 and GFP, P15 connected to the end N of GFP, expressed from plasmid pEGFP-P15 (MPYSTELIFYIEMDP-{GFP})
Positive BrdU cells ([3]; Cells 3T3, BrdU 15 hours, two days after transfection): 12.5% | Inhibition ratio ([3]; Cells 3T3, DNA synthesis, relative to GFP): 76.8% | Positive BrdU cells ([4]; Cells MCF7, BrdU 15 hours, two days after transfection): 5.2% | Inhibition ratio ([4]; Cells MCF7, DNA synthesis, relative to GFP): 83.4% | G0/G1 [2, 6]: 52.1% | G2/M [2, 6]: 25.7% | S [2, 6]: 22.1% | G0/G1 [5]: 85.6% | G2/M [5]: 3.3% | S [5]: 11.1%

Cc1ccc(NC(=O)c2ccc(CN3CCN(C)CC3)cc2)cc1Nc1nccc(-c2cccnc2)n1 [Glivec]
Inhibition ratio [1]: 48%
